Patent US11702422B2, “Imidazopyridazines as modulators of IL-17” (Janssen Pharmaceutica NV, priority 2020, dated 2023)

Assays:
[1] = target: IL-17A(FLAG-Tagged): IL-17RA(His-Tagged) (Homo sapiens, UniProt Q16552, K93Q); assay: IL-17A(FLAG-Tagged): IL-17RA(His-Tagged) Binding Disruption Eu-HTRF Assay; conditions: IL-17A/IL-17RA binding disruption, simple average if tested more than once
How it was run: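 IC50 comes from a one-site competition fit of the HTRF 665/620 nm ratio. Compound dilutions (2-fold, 22 points) were held 1 h rt with FLAG-tagged IL-17A dimer, then His-tagged IL-17RA plus Eu-cryptate anti-FLAG and D2 anti-His antibodies were added for 2 h rt.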

[2] = test system: IL-17A-induced G-CSF production in human normal keratinocyte (NHK); assay: NHK Assay: IL-17A-induced G-CSF production in human normal keratinocytes; format: cell-based; conditions: adult normal human keratinocytes, IL-17A 5 ng/mL, 24 h, simple average if tested more than once
How it was run: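 Adult NHK, 3000-4000 cells/well; rhIL-17A + titrated cpd preincubated 1 h rt, then onto cells. Final: IL-17A 5 ng/mL, DMSO 0.2%, 5% FBS. 24 h, 37° C. G-CSF in supernatant by HTRF vs standard curve; IC50. Viability by CellTiter-Glo vs DMSO.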

Chain of UniProt Q16552 (Q16552 with tags, fused parts or gaps K93Q): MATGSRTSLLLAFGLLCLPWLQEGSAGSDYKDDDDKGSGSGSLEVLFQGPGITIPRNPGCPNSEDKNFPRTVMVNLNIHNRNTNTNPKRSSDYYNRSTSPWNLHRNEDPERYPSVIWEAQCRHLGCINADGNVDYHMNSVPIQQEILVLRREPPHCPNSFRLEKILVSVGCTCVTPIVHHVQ

Compound	IC50 [1] [nM]	IC50 [2] [nM]	IC50 ([2]; Homo sapiens, Keratinocyte) [nM]
CC(C)n1nccc1C(=O)N[C@@H](COC(C)(C)C)c1cn2ncc(C(NC(=O)CCC(F)(F)F)C3CC3)cc2n1 (single isomer, unassigned) [Example 316, N—((R)-2-(tert-Butoxy)-1-(7-((R*)-cyclopropyl(4,4,4-trifluorobutanamido)methyl)imidazo[1,2-b]pyridazin-2-yl)ethyl)-1-isopropyl-1H-pyrazole-5-carboxamide]	240	700	
CC(C)n1nccc1C(=O)N[C@@H](COC(C)(C)C)c1cn2ncc(C(NC(=O)CCC(F)(F)F)C3CC3)cc2n1 (single isomer, unassigned) [Example 317, N—((R)-2-(tert-Butoxy)-1-(7-((S*)-cyclopropyl(4,4,4-trifluorobutanamido)methyl)imidazo[1,2-b]pyridazin-2-yl)ethyl)-1-isopropyl-1H-pyrazole-5-carboxamide]	9900	> 20000	
Cc1nonc1C(=O)N[C@H](c1cn2ncc([C@H](NC(=O)CC3CC(F)(F)C3(F)F)C3CC3)cc2n1)C1CCC(F)(F)CC1 (single isomer, unassigned) [Example 324, N—((S)-(7-((R)-Cyclopropyl(2-((R*)-2,2,3,3-tetrafluorocyclobutyl)acetamido)methyl)imidazo[1,2-b]pyridazin-2-yl)(4,4-difluorocyclohexyl)methyl)-4-methyl-1,2,5-oxadiazole-3-carboxamide]	61		300
Cc1nonc1C(=O)N[C@H](c1cn2ncc([C@H](NC(=O)CC3CC(F)(F)C3(F)F)C3CC3)cc2n1)C1CCC(F)(F)CC1 (single isomer, unassigned) [Example 325, N—((S)-(7-((R)-Cyclopropyl(2-((S*)-2,2,3,3-tetrafluorocyclobutyl)acetamido)methyl)imidazo[1,2-b]pyridazin-2-yl)(4,4-difluorocyclohexyl)methyl)-4-methyl-1,2,5-oxadiazole-3-carboxamide]	91	300	
Cc1nonc1C(=O)N[C@H](c1cn2ncc([C@H](NC(=O)C(C)CC(F)F)C3CC3)cc2n1)C1CCC(F)(F)CC1 (single isomer, unassigned) [Example 329, N—((S)-(7-((R)-Cyclopropyl((S*)-4,4-difluoro-2-methylbutanamido)methyl)imidazo[1,2-b]pyridazin-2-yl)(4,4-difluorocyclohexyl)methyl)-4-methyl-1,2,5-oxadiazole-3-carboxamide]	930		2200
Cc1nonc1C(=O)N[C@H](c1cn2ncc([C@H](NC(=O)C(C)CC(F)F)C3CC3)cc2n1)C1CCC(F)(F)CC1 (single isomer, unassigned) [Example 330, N—((S)-(7-((R)-Cyclopropyl((R*)-4,4-difluoro-2-methylbutanamido)methyl)imidazo[1,2-b]pyridazin-2-yl)(4,4-difluorocyclohexyl)methyl)-4-methyl-1,2,5-oxadiazole-3-carboxamide]	560	2200	
Cc1nonc1C(=O)N[C@H](c1cn2ncc([C@H](NC(=O)C(F)C3CC3)C3CC3)cc2n1)C1CCC(F)(F)CC1 (single isomer, unassigned) [Example 331, N—((S)-(7-((R)-Cyclopropyl((R*)-2-cyclopropyl-2-fluoroacetamido)methyl)imidazo[1,2-b]pyridazin-2-yl)(4,4-difluorocyclohexyl)methyl)-4-methyl-1,2,5-oxadiazole-3-carboxamide]	310	1500	
Cc1nonc1C(=O)N[C@H](c1cn2ncc([C@H](NC(=O)C(F)C3CC3)C3CC3)cc2n1)C1CCC(F)(F)CC1 (single isomer, unassigned) [Example 332, N—((S)-(7-((R)-Cyclopropyl((S*)-2-cyclopropyl-2-fluoroacetamido)methyl)imidazo[1,2-b]pyridazin-2-yl)(4,4-difluorocyclohexyl)methyl)-4-methyl-1,2,5-oxadiazole-3-carboxamide]	1500	12000	
CCC(CC(=O)N[C@@H](c1cnn2cc([C@@H](NC(=O)c3nonc3C)C3CCC(F)(F)CC3)nc2c1)C1CC1)CC(F)(F)F (single isomer, unassigned) [Example 342, N—((S)-(7-((R)-Cyclopropyl((R*)-3-ethyl-5,5,5-trifluoropentanamido)methyl)imidazo[1,2-b]pyridazin-2-yl)(4,4-difluorocyclohexyl)methyl)-4-methyl-1,2,5-oxadiazole-3-carboxamide]	340	1400	
CCC(CC(=O)N[C@@H](c1cnn2cc([C@@H](NC(=O)c3nonc3C)C3CCC(F)(F)CC3)nc2c1)C1CC1)CC(F)(F)F (single isomer, unassigned) [Example 343, N—((S)-(7-((R)-Cyclopropyl((S*)-3-ethyl-5,5,5-trifluoropentanamido)methyl)imidazo[1,2-b]pyridazin-2-yl)(4,4-difluorocyclohexyl)methyl)-4-methyl-1,2,5-oxadiazole-3-carboxamide]	170	430	
Cc1nonc1C(=O)N[C@H](c1cn2ncc([C@H](NC(=O)C(F)CC3CC3)C3CC3)cc2n1)C1CCC(F)(F)CC1 (single isomer, unassigned) [Example 344, N—((S)-(7-((R)-Cyclopropyl((R*)-3-cyclopropyl-2-fluoropropanamido)methyl)imidazo[1,2-b]pyridazin-2-yl)(4,4-difluorocyclohexyl)methyl)-4-methyl-1,2,5-oxadiazole-3-carboxamide]	52	230	
Cc1nonc1C(=O)N[C@H](c1cn2ncc([C@H](NC(=O)C(F)CC3CC3)C3CC3)cc2n1)C1CCC(F)(F)CC1 (single isomer, unassigned) [Example 345, N—((S)-(7-((R)-Cyclopropyl((S*)-3-cyclopropyl-2-fluoropropanamido)methyl)imidazo[1,2-b]pyridazin-2-yl)(4,4-difluorocyclohexyl)methyl)-4-methyl-1,2,5-oxadiazole-3-carboxamide]	180	670	
Cc1nonc1C(=O)N[C@H](c1cn2ncc([C@H](NC(=O)C(C)CC(F)(F)F)C3CC3)cc2n1)C1CCC(F)(F)CC1 (single isomer, unassigned) [Example 346, N—((S)-(7-((R)-Cyclopropyl((R*)-4,4,4-trifluoro-2-methylbutanamido)methyl)imidazo[1,2-b]pyridazin-2-yl)(4,4-difluorocyclohexyl)methyl)-4-methyl-1,2,5-oxadiazole-3-carboxamide]	150	440	
Cc1nonc1C(=O)N[C@H](c1cn2ncc([C@H](NC(=O)C(C)CC(F)(F)F)C3CC3)cc2n1)C1CCC(F)(F)CC1 (single isomer, unassigned) [Example 347, N—((S)-(7-((R)-Cyclopropyl((S*)-4,4,4-trifluoro-2-methylbutanamido)methyl)imidazo[1,2-b]pyridazin-2-yl)(4,4-difluorocyclohexyl)methyl)-4-methyl-1,2,5-oxadiazole-3-carboxamide]	470	1600	
Cc1nonc1C(=O)N[C@H](c1cn2ncc([C@H](NC(=O)C(F)C3CCC3)C3CC3)cc2n1)C1CCC(F)(F)CC1 (single isomer, unassigned) [Example 348, N—((S)-(7-((R)-((R*)-2-Cyclobutyl-2-fluoroacetamido)(cyclopropyl)methyl)imidazo[1,2-b]pyridazin-2-yl)(4,4-difluorocyclohexyl)methyl)-4-methyl-1,2,5-oxadiazole-3-carboxamide]	69	220	
